From US20110028453A1, “Treating Negative Symptoms of Schizophrenia Associated with Defective Neuregulin 1” (priority 2009, published 2011)

What was measured:
[1] = tested on: ErbB4; assay: Western blot of ErbB4 level in treated A172 cells; format: cell-based, human
Description: (§1) A172 cells were cultured in DMEM supplemented with 10% heat-inactivated fetal bovine serum (FBS; Hyclone, Logan, Utah), 100 U/mL penicillin and 0.1 mg/mL streptomycin (Invitrogen, Carlsbad, Calif.) at 37° C. in a humidified incubator with 5% CO2 and 95% air.
(§2) The cells were lysed and the lysates were suspended in a RIPA buffer (50 mM HEPES (pH 7.4), 4 mM EDTA, 150 mM NaCl, 10 mM Na4P2O7, 100 mM NaF, 2 mM Na3VO4, 1% Triton X-100, 0.25% sodium deoxycholate, 50 mM 4-(2-aminoethyl) benzene sulfonylfluoride, 50 μg/mL leupeptin, and 20 μg/mL aprotinin). For each cell sample, 30˜50 μg of total protein, along with a molecular weight ladder were resolved on 8% a bis-tris polyacrylamide NuPAGE gels (90˜130 V, 2 hrs) via electrophoresis and then transferred onto a nitrocellulose membrane (Invitrogen) (550 mA, 90 min) The membrane was first blocked using phosphate buffered saline (PBS) with 5% dry skimmed milk powder for 1 hr at room temperature and then incubated at 4° C. in the presence of mouse anti-serotonin transporter antibody (MAB1564; Chemicon), rabbit anti-norepinephrine transporter antibody (AB2234; Millipore, Bedford, Mass.), or anti-β-actin antibody (MAB1501, Chemicon) overnight. The antibody was diluted in phosphate buffered saline containing 0.1% Tween-20 (PBST). Afterwards, the membrane was washed with PBST and then incubated with a peroxidase-conjugated secondary antibody in PBST. After being washed for several times, the membrane was subjected to the enhanced chemiluminescence (ECL) analysis, following the method described in Yeh et al., 2009, Glia, 57:454-464, using an ECL kit purchased from Santa Cruz Biotechnology and Kodak X-OMAT LS film (Eastman Kodak, Rochester, N.Y.).
(§3) A172 cells were cultured in the presence of serotonin at a concentration of 1, 3, 10, 30, or 100 μM. The levels of both NGR1 and ErbB4, the major receptor of NRG1 in the brain, in the treated A172 cells were examined by Western blot as described above at various time points (e.g., 2 hr, 4 hr, 8 hr, 12 hr, and 24 hr post treatment), using rabbit anti-NRG1 precursor antibody no. […]

[2] = tested on: NRG1; assay: Western blot of NRG1 level in treated A172 cells; format: cell-based, human
Description: as §1, §2, §3

[3] = tested on: wild-type and NRG1+/- mice; assay: Forced swimming test; format: in vivo, mouse; conditions: for effect on immobility time: i.p., desipramine 20, imipramine 15, venlafaxine 15 mg/kg; for immobility period: desipramine 20 mg/kg i.p.
Source text: (§4) Transmembrane (TM)-domain NRG1 heterozygous mutant mice (129S5-Nrg1tm1Lex, ID#011745-UCD) were obtained from Mutant Mouse Regional Resource Centers (MMRRC) and backcrossed with B6 mice. NRG1^+/− mice and their wild-type littermates were generated by in-house mating of male NRG1^+/− mice and female C57BL/6 mice. Heterozygous crossing has been practiced for at least 7 generations to obtain animals with a homogeneous C57BL/6 genetic background except for the TM-mutated nrg1 gene locus. Mouse genotypes were determined by PCR analysis. Animals were housed (five per cage) under a 12-hr light/dark cycle (lights on from 8:00 a.m. to 8:00 p.m.) at constant room temperature and relative humidity with food and water available ad libitum. All experiments were started at 10-week-old period at weight of 25-30 g.
(§5) Before undergoing any behavioral test, animals were handled by an investigator for at least 3 days so that they became familiar with the investigator. The animals had been placed under laboratory conditions for at least 1 hr before each behavioral test.
To perform the forced swimming test, each mouse, administered via intraperitoneal injection with either one of the above-listed serotonin transporter inhibitors or saline 30-60 minutes ago, was placed individually in a clear glass cylinder (height, 25 cm; diameter, 15 cm) containing water (depth: 15 cm; temperature: 26±1° C.). Its behavior was recorded by a video camera during a 6-min testing period. The duration of immobility was measured during the last 4 min after a 2-min habituation period.

[4] = tested on: wild-type and NRG1+/- mice; assay: Social withdrawal behavior evaluation; format: in vivo, mouse; parameters: key to social approach change score: score: +1/s social side, 0 center, -1 nonsocial; presence minus absence; conditions: i.p. 30 min before testing; for social approach change score: NRG1+/- mice; for social approach change score, effect: wild-type mice, same doses
Source text: as §4, §5
The social withdrawal behavior evaluation study was performed following the method described in Sankoorikal et al., Biol. Psychiatry 59:415-423, 2006 with modifications. Briefly, this study was carried out in a behavioral testing apparatus containing two end chambers and one middle chamber. A clear Plexiglas cylinder was placed in each of the two end chambers, one being designated as “social side” (where stimulus to mice was introduced through the cylinder) and the other being designated as the “nonsocial side.” (where the cylinder is empty). Multiple holes (0.5 in diameter each) are evenly spaced over the surface of the two cylinders.
Each of the mice to be tested was housed individually for 3 days before the social withdrawal behavior evaluation study was performed. During the study, the response (i.e., social approach) of a test mouse to a novel (unfamiliar) “stimulus” was observed within 5 minutes after the mouse was exposed to the stimulus. A “social approach score” was calculated for each mouse according to the time it spent in each of the three chambers as follows: +1 for each second spent in the social side chamber, 0 for each second spent in the center chamber, and −1 for each second spent in the nonsocial side chamber. The “social approach change score” was calculated by subtracting the value of “social approach score in the absence of stimulus mouse” condition from the value for “presence of stimulus mouse” condition.

[5] = NRG1+/- mice, much greater than in wild-type
[6] = male (FIG. 2 panel A), desipramine 20, imipramine 15, fluvoxamine 15, venlafaxine 15, duloxetine 20, escitalopram 30 mg/kg, saline −37.7±28.8
[7] = female, duloxetine 20, escitalopram 30 mg/kg, saline −60.4±40.2

Compound | effect on immobility time [3, 5] | effect on immobility time ([3]; wild-type mice) | social approach change score [4, 6] | social approach change score, effect [4] | also measured
COc1cc(CC(C)N)c(OC)cc1I (centres unmarked) [DOI] |  |  |  |  | effect on level of ErbB4 ([1]; 0.1-3 μM, 4 hours): did not show increased levels; effect on level of NRG1 ([2]; 0.1-3 μM, 4 hours): did not show increased levels
NCCc1c[nH]c2ccc(O)cc12 [serotonin] |  |  |  |  | level of ErbB4 compared to saline control ([1]; serotonin 10 μM, p<0.05): 1.7±0.1 fold; level of NRG1 compared to saline control ([2]; serotonin 10 μM, p<0.05): 1.4±0.06 fold
CN(C)CCCN1c2ccccc2CCc2ccccc21 [imipramine] | decreased | only slightly affected | 138.7±18.8 | not significantly different | 
COCCCC/C(=N\OCCN)c1ccc(C(F)(F)F)cc1 [fluvoxamine] |  |  | 98.6±15.9 | not significantly different | 
CNCCCN1c2ccccc2CCc2ccccc21 [desipramine] | decreased | only slightly affected | 122.7±31.0 | not significantly different | immobility ([3]; C57BL/6 wild-type mice, desipramine 50 mg/kg, saline 101.4±16.4 sec): 58.6 ± 11.0 s; immobility period ([3]; NRG1+/- mice, control NRG1+/- = 122.8%, p<0.01): 36.5±18.0%; immobility period ([3]; wild-type mice, control wild-type = 100.0%, p=0.24): 65.7±24.5%
CN(C)CCC[C@@]1(c2ccc(F)cc2)OCc2cc(C#N)ccc21 [escitalopram] |  |  | 175.3±60.4 | not significantly different | social approach change score [4, 7]: 110.1±41.9
COc1ccc(C(CN(C)C)C2(O)CCCCC2)cc1 (centres unmarked) [venlafaxine] | decreased | only slightly affected | 61.9±24.7 | not significantly different | 
CCCN(CCC)C1CCc2cccc(O)c2C1 (centres unmarked) [8-OH DPAT, 8-hydroxy-N,N-dipropyl-2-aminotetralin] |  |  |  |  | level of ErbB4 compared with untreated A172 cells (maximal effect) ([1]; 0.3 μM, 4 hours): 1.44±0.10 fold; level of NRG1 compared with untreated A172 cells (maximal effect) ([2]; 0.3 μM, 4 hours): 1.44±0.12 fold
CNCC[C@H](Oc1cccc2ccccc12)c1cccs1 [duloxetine] |  |  | 78.7±28.5 | not significantly different | social approach change score [4, 7]: 103.7±30.8
